Source: ChEMBL document CHEMBL4052762, “Synthesis and biological evaluation of pyrrole-based chalcones as CYP1 enzyme inhibitors, for possible prevention of cancer and overcoming cisplatin resistance” (Bioorg Med Chem Lett, 2017)

Key:
Cytochrome P450 1A1 = target: T1, Cytochrome P450 1A1 (Homo sapiens, UniProt P04798); experiment: Inhibition of human CYP1A1 bound to yeast microsomal membrane using 7-ethoxyresorufin as substrate after 10 mins by fluorescence assay
T1 sequence (P04798 whole entry): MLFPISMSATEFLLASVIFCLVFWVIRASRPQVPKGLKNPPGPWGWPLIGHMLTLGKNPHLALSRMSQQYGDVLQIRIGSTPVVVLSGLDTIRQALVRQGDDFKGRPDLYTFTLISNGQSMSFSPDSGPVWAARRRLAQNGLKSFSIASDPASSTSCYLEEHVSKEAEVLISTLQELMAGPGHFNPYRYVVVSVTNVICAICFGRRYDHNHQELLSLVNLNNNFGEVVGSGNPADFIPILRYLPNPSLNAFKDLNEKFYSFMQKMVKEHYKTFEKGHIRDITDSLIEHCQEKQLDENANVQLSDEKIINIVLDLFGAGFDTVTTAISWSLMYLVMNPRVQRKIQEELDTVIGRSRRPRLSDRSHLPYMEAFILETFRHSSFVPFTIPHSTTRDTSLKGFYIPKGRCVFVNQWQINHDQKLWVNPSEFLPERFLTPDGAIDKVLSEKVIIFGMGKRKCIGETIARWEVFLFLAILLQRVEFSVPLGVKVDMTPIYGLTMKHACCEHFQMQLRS

Cytochrome P450 1B1 = target: T2, Cytochrome P450 1B1 (Homo sapiens, UniProt Q16678); experiment: Inhibition of human CYP1B1 bound to yeast microsomal membrane using 7-ethoxyresorufin as substrate after 10 mins by fluorescence assay
T2 sequence (Q16678 whole entry): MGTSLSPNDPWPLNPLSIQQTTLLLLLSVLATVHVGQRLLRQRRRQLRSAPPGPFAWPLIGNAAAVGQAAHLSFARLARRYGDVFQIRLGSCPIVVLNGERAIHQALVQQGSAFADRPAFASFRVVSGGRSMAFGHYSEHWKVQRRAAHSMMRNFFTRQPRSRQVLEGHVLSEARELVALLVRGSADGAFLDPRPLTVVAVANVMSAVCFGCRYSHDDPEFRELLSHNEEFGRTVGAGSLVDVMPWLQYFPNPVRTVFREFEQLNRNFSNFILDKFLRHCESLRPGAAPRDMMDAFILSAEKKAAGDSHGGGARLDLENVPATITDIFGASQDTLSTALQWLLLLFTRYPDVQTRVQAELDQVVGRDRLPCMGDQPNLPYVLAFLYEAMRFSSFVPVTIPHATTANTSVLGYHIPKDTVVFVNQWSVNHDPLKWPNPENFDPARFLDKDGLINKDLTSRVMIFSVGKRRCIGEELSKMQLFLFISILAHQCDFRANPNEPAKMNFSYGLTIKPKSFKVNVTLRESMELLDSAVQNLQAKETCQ

Cytochrome P450 3A4 = Cytochrome P450 3A4 (Homo sapiens, UniProt P08684); experiment: Inhibition of human CYP3A4 bound to yeast microsomal membrane using dibenzylfluorescein as substrate after 10 mins by fluorescence assay; assay type: ADME
Sequence of Cytochrome P450 3A4 (P08684 whole entry): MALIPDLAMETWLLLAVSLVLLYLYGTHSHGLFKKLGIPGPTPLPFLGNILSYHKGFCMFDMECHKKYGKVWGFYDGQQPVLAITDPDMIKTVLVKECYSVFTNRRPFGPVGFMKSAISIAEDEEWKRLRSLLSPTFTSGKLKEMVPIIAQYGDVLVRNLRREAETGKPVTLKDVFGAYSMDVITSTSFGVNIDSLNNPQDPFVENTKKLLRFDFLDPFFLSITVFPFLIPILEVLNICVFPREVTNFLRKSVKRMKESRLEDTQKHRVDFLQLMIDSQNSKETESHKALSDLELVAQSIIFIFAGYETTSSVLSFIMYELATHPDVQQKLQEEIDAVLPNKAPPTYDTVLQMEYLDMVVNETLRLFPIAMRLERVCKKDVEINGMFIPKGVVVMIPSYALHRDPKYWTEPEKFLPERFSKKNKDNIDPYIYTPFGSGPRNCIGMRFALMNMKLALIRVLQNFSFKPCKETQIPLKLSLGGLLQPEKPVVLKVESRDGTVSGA

Cytochrome P450 1A2 = target: T3, Cytochrome P450 1A2 (Homo sapiens, UniProt P05177); experiment: Inhibition of human CYP1A2 bound to yeast microsomal membrane using 3-cyano-7-ethoxycoumarin as substrate after 10 mins by fluorescence assay
T3 sequence (P05177 whole entry): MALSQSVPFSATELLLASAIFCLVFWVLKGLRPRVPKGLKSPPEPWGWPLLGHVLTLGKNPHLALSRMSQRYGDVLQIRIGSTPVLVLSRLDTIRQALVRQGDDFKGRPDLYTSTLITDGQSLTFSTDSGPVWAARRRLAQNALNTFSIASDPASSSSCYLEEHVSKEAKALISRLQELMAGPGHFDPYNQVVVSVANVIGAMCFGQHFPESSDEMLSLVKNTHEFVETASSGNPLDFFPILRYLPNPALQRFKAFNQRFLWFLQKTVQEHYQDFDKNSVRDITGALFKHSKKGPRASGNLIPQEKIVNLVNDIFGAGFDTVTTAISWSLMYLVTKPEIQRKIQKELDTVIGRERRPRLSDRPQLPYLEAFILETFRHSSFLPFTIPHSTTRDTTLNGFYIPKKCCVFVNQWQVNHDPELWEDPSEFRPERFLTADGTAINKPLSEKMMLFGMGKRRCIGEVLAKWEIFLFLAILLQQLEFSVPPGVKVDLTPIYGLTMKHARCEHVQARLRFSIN

Cytochrome P450 2C9 = Cytochrome P450 2C9 (Homo sapiens, UniProt P11712); experiment: Inhibition of human CYP2C9 bound to yeast microsomal membrane using 3-cyano-7-ethoxycoumarin as substrate after 10 mins by fluorescence assay; assay type: ADME
Sequence of Cytochrome P450 2C9 (P11712 whole entry): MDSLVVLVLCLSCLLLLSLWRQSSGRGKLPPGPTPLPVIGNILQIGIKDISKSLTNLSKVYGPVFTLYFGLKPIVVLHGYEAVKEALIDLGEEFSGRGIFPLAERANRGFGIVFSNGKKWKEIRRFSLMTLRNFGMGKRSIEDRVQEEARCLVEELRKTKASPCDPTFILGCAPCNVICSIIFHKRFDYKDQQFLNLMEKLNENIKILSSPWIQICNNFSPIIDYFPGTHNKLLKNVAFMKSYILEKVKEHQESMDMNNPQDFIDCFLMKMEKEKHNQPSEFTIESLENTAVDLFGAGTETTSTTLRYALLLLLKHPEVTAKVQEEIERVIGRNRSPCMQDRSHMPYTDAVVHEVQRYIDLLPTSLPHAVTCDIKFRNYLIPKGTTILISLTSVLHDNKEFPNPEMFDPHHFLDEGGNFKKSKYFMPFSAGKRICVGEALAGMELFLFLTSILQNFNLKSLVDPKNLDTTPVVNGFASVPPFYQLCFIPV

Cytochrome P450 2D6 = Cytochrome P450 2D6 (Homo sapiens, UniProt P10635); experiment: Inhibition of human CYP2D6 bound to yeast microsomal membrane using 7-ethoxy-methyloxy-3-cyanocoumarin as substrate after 10 mins by fluorescence assay; assay type: ADME
Sequence of Cytochrome P450 2D6 (P10635 whole entry): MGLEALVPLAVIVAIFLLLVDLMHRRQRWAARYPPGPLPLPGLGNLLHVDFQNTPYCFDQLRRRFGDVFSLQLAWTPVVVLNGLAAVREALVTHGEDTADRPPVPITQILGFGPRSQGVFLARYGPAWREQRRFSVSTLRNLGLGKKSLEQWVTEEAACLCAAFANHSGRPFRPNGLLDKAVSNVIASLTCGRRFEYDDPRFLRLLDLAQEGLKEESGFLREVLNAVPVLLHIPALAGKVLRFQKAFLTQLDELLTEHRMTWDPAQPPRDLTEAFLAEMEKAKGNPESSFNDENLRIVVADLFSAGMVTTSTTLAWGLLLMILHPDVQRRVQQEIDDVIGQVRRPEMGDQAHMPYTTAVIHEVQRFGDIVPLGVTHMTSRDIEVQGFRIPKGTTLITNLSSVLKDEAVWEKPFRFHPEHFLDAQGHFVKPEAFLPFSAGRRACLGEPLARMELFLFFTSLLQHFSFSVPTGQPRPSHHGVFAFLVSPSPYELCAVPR

Cytochrome P450 2C19 = Cytochrome P450 2C19 (Homo sapiens, UniProt P33261); experiment: Inhibition of human CYP2C19 bound to yeast microsomal membrane using 3-cyano-7-ethoxycoumarin as substrate after 10 mins by fluorescence assay; assay type: ADME
Sequence of Cytochrome P450 2C19 (P33261 whole entry): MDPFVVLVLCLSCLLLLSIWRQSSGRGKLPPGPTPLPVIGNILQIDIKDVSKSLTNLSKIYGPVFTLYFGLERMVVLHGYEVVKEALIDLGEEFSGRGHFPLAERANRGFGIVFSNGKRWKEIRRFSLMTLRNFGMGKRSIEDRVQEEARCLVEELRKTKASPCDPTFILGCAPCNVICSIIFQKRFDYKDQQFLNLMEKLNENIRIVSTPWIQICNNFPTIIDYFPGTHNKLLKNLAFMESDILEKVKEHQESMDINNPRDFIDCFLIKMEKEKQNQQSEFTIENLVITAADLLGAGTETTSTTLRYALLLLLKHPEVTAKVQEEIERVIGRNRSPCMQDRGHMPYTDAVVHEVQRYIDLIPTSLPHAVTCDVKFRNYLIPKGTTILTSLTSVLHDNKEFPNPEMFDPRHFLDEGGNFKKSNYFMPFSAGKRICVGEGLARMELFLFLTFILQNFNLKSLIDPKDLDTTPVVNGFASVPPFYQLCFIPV

IC50 (Cytochrome P450 1A1) | IC50 (Cytochrome P450 1B1) | IC50 (Cytochrome P450 3A4) | IC50 (Cytochrome P450 1A2) | IC50 (Cytochrome P450 2C9) | IC50 (Cytochrome P450 2D6) | IC50 (Cytochrome P450 2C19) | SMILES
> 20 µM | > 20 µM | > 20 µM | 15 µM | > 20 µM | 14 µM | > 20 µM | COc1cc(/C=C/C(=O)c2ccc[nH]2)cc(OC)c1OC
> 20 µM | > 20 µM | > 20 µM | 10.5 µM | > 20 µM | 12 µM | > 20 µM | O=C(/C=C/C=C/c1ccccc1)c1ccc[nH]1
> 20 µM | 13 µM | > 20 µM | > 20 µM | > 20 µM | 14 µM | > 20 µM | O=C(/C=C/c1cccc(Br)c1)c1ccc[nH]1
> 20 µM | > 20 µM | > 20 µM | > 20 µM | > 20 µM | 12 µM | > 20 µM | O=C(/C=C/c1c2ccccc2cc2ccccc12)c1ccc[nH]1
10.8 µM | > 20 µM | > 20 µM | 10 µM | > 20 µM | 18 µM | > 20 µM | COc1cccc(OC)c1/C=C/C(=O)c1ccc[nH]1
6.1 µM | > 20 µM | > 20 µM | 9 µM | > 20 µM | 15 µM | > 20 µM | COc1cc(/C=C/C(=O)c2ccc[nH]2)cc(OC)c1
16 µM | 1.5 µM | > 20 µM | 12 µM | > 20 µM | 14 µM | > 20 µM | O=C(/C=C/c1cccc(Cl)c1)c1ccc[nH]1
> 20 µM | 8.5 µM | > 20 µM | 13.2 µM | > 20 µM | 18 µM | > 20 µM | O=C(/C=C/c1ccc(Br)cc1)c1ccc[nH]1
> 20 µM | 2.7 µM | > 20 µM | 2.2 µM | > 20 µM | 16 µM | > 20 µM | O=C(/C=C/c1ccccc1F)c1ccc[nH]1
6.2 µM | 5.2 µM | > 20 µM | 1.5 µM | > 20 µM | 11 µM | > 20 µM | COc1cccc(/C=C/C(=O)c2ccc[nH]2)c1

More lines, now with the values behind:

SMILES | IC50 (Cytochrome P450 1A1) | IC50 (Cytochrome P450 1B1) | IC50 (Cytochrome P450 3A4) | IC50 (Cytochrome P450 1A2) | IC50 (Cytochrome P450 2C9) | IC50 (Cytochrome P450 2D6) | IC50 (Cytochrome P450 2C19)
O=C(/C=C/c1cc([N+](=O)[O-])ccc1Cl)c1ccc[nH]1 | > 20 µM | > 20 µM | > 20 µM | 10.9 µM | > 20 µM | 12 µM | > 20 µM
COc1ccc(/C=C/C=C/C(=O)c2ccc[nH]2)cc1 | > 20 µM | > 20 µM | > 20 µM | 13 µM | > 20 µM | 18 µM | > 20 µM
COc1ccc(/C=C/C(=O)c2ccc[nH]2)c(OC)c1 | 11.8 µM | > 20 µM | > 20 µM | 10 µM | > 20 µM | 11 µM | > 20 µM
CCc1ccc(/C=C/C(=O)c2ccc[nH]2)o1 | > 20 µM | 9.2 µM | > 20 µM | 2.5 µM | > 20 µM | 17 µM | > 20 µM
COc1ccc(/C=C/C(=O)c2ccc[nH]2)cc1 | > 20 µM | > 20 µM | > 20 µM | 11.8 µM | > 20 µM | 16 µM | > 20 µM
COc1ccc(/C=C/C(=O)c2ccc[nH]2)cc1Br | > 20 µM | > 20 µM | > 20 µM | 17 µM | > 20 µM | 13 µM | > 20 µM
CN(C)c1ccc(/C=C/C(=O)c2ccc[nH]2)cc1 | > 20 µM | > 20 µM | > 20 µM | 12.5 µM | > 20 µM | 13 µM | > 20 µM
O=C(/C=C/c1ccc2c(c1)OCO2)c1ccc[nH]1 | 5.8 µM | > 20 µM | > 20 µM | 9.7 µM | > 20 µM | 14 µM | > 20 µM
O=C(O)c1ccc(/C=C/C(=O)c2ccc[nH]2)cc1 | > 20 µM | > 20 µM | > 20 µM | > 20 µM | > 20 µM | 18 µM | > 20 µM
COc1cccc(/C=C/C(=O)c2ccc[nH]2)c1OC | 5.2 µM | > 20 µM | > 20 µM | 9.2 µM | > 20 µM | 16 µM | > 20 µM
